One assay deals with T1, Lp-PLA2 (Homo sapiens, UniProt Q13093).
T1 construct: aliquoted and thawed 40 μL of pooled human plasma was previously added; from tissue; host or cells: pooled human plasma
T1 sequence (Q13093 22-441): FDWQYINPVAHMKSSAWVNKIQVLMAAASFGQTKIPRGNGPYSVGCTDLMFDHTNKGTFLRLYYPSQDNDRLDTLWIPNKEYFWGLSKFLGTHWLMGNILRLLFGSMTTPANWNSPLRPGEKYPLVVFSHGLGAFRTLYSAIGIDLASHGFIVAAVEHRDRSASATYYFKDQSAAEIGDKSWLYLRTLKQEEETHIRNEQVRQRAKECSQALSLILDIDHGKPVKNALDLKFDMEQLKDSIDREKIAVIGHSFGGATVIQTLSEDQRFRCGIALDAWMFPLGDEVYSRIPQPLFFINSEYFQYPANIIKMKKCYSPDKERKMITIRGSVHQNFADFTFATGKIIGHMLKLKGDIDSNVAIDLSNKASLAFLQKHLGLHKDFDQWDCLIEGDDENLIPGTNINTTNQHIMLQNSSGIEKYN
The assay is described as follows: Lipoprotein-associated phospholipase A2 (Lp-PLA2) human plasma assay (Thio-PAF assay). It is filed as biochemical. The following applies: Comparison of activity data (I); pooled human plasma, 2-thio-PAF substrate, 30-min pre-incubation.
`O=c1nc(OCc2cc(F)c(F)c(F)c2)cc2n1CC1COCCN21` (racemic) [Corresponding racemate of Example 123 in WO2016011930A1, reference compound]: the IC50 turned out to be 63.3 nM.

The assay is the same for the next values; noted with them: Lp-PLA2 human plasma assay (Thio-PAF), pooled human plasma, 30-min pre-incubation at room temperature.
For `O=c1nc(OCc2cc(F)c(Oc3cccc(C(F)(F)F)c3)c(F)c2)cc2n1C[C@]13CO[C@H](CN21)C3` [Example 194, (3S,11aR)-7-((3,5-difluoro-4-(3-(trifluoro-methyl)phenoxy)benzyl)oxy)-3,4-dihydro-1H,9H,11H-3,11a-methanopyrimido[6′,1′:2,3] imidazo[5,1-c][1,4]oxazin-9-one], the IC50 turned out to be 4 nM.

For `O=c1nc(OCCc2ccc(Oc3ccc(Cl)c(C(F)(F)F)c3)cc2)cc2n1C[C@]13CO[C@H](CN21)C3` [Example 23, (3S,11aR)-7-(4-(4-chloro-3-(trifluoromethyl)phenoxy)phenethoxy)-3,4-dihydro-1H,9H,11H-3,11a-methanopyrimido[6′,1′:2,3] imidazo[5,1-c][1,4]oxazin-9-one], the IC50 came to 5 nM.

For `O=c1nc(OCc2ccc(Oc3ccc(C(F)(F)F)cc3)c(F)c2)cc2n1CC13CC(CN21)C3` [Example 129, 3-((3-fluoro-4-(4-(trifluoromethyl)phenoxy)benzyl)oxy)-7,8-dihydro-1H,6H,9H-7,8a-methanopyrrolo[1′,2′:3,4] imidazo[1,2-c]pyrimidin-1-one], the IC50 came out at 6.5 nM.

For the compound `O=c1nc(OCc2cc(F)c(Oc3ccnc(C(F)(F)F)c3)c(F)c2)c(F)c2n1C[C@]13CO[C@H](CN21)C3` [Example 88, (3S,11aR)-7-((3,5-difluoro-4-((2-(trifluoromethyl)pyridin-4-yl)oxy)benzyl)oxy)-6-fluoro-3,4-dihydro-1H,9H,11H-3,11a-methanopyrimido[6′,1′:2,3] imidazo[5,1-c][1,4]oxazin-9-one], the IC50 came to 5.2 nM.

Consider `O=c1nc(OCc2ccccc2F)cc2n1CC13CC(CN21)C3` [Example 44, 3-((2-fluorobenzyl)oxy)-7,8-dihydro-1H,6H,9H-7,8a-methanopyrrolo[1′,2′:3,4] imidazo[1,2-c]pyrimidin-1-one], for which the IC50 is 342 nM.

On to `CC12COCCN1c1cc(OCc3cc(F)c(Oc4ccc(C(F)(F)F)nc4)c(F)c3)nc(=O)n1C2` (stereo not drawn) [Example 81, 7-((3,5-difluoro-4-((6-(trifluoromethyl)pyridin-3-yl)oxy)benzyl)oxy)-11a-methyl-3,4,11,11a-tetrahydro-1H,9H-pyrimido[6′,1′:2,3]imidazo [5,1-c][1,4]oxazin-9-one], for which the IC50 turned out to be 5.1 nM.

As to `Cc1cc(Oc2c(F)cc(COc3nc(=O)n4c(c3F)N3C[C@@H]5C[C@]3(CO5)C4)cc2F)ccn1` [Example 89, (3S,11aR)-7-((3,5-difluoro-4-((2-methyl-pyridin-4-yl)oxy)benzyl)oxy)-6-fluoro-3,4-dihydro-1H,9H,11H-3,11a-methanopyrimido[6′,1′:2,3] imidazo[5,1-c][1,4]oxazin-9-one], the IC50 was found to be 10.9 nM.

On to `O=c1nc(OCc2cc(F)c(Oc3cncc(C(F)(F)F)c3)c(F)c2)cc2n1CC13CC(CN21)C3` [Example 40], for which the IC50 is 6.4 nM.

For `O=c1nc(OCc2ccc(Oc3ccc(C(F)(F)F)nc3)c(F)c2)cc2n1CC13CCC(CC1)N23` [Example 121, 3-((3-fluoro-4-((6-(trifluoromethyl)pyridin-3-yl)oxy)benzyl)oxy)-7,8-dihydro-1H,6H,9H-6,8a-ethanopyrrolo[1′,2′:3,4] imidazo[1,2-c]pyrimidin-1-one], the IC50 amounted to 8.6 nM.

As to `O=c1nc(OCc2cc(F)c(Oc3cccc(C(F)F)c3)c(F)c2)cc2n1C[C@]13CO[C@H](CN21)C3` [Example 179], the IC50 turned out to be 4.1 nM.

For the compound `O=c1nc(OCc2ccc(Oc3ccnc(C(F)(F)F)c3)cc2)cc2n1CC13CC(CN21)C3` [Example 109, 3-((4-((2-(trifluoromethyl)pyridin-4-yl)oxy)benzyl)oxy)-7,8-dihydro-1H,6H,9H-7,8a-methanopyrrolo[1′,2′:3,4] imidazo[1,2-c]pyrimidin-1-one], the IC50 stood at 14 nM.

As for `O=c1nc(OCc2ccc(Oc3ccnc(OC(F)(F)F)c3)c(F)c2)cc2n1CC13CCC(CC1)N23` [Example 154, 3-((3-fluoro-4-((2-(trifluoromethoxy)pyridin-4-yl)oxy)benzyl)oxy)-7,8-dihydro-1H,6H,9H-6,8a-ethanopyrrolo[1′,2′:3,4] imidazo[1,2-c]pyrimidin-1-one], the IC50 was determined as 3.6 nM.

As to `O=c1nc(OCc2cc(F)c(Oc3ccnc(C(F)(F)F)c3)c(F)c2)cc2n1CC13CC(F)(CN21)C3` [Example 158, 3-((3,5-difluoro-4-((2-(trifluoromethyl)pyridin-4-yl)oxy)benzyl)oxy)-7-fluoro-7,8-dihydro-1H,6H,9H-7,8a-methanopyrrolo[1′,2′:3,4] imidazo[1,2-c]pyrimidine-1-one], the IC50 amounted to 2.1 nM.

In the case of `O=c1nc(OCCc2ccc(Oc3ccc(Cl)c(C(F)(F)F)c3)c(F)c2)cc2n1CC13CC(CN21)C3` [Example 186, 3-(4-(4-chloro-3-(trifluoromethyl)phenoxy)-3-fluorophenethoxy)-7,8-dihydro-1H,6H,9H-7,8a-methanopyrrolo[1′,2′:3,4]imidazo[1,2-c] pyrimidin-1-one], the 50% inhibitory concentration (IC50) came to 7.4 nM.

As to `CCC12CCCN1c1cc(OCc3cc(F)c(Oc4ccnc(C(F)(F)F)c4)c(F)c3)nc(=O)n1C2` (stereo not drawn) [Example 63, 3-((3,5-difluoro-4-((2-(trifluoromethyl)pyridin-4-yl)oxy)benzyl)oxy)-8a-ethyl-7,8,8a,9-tetrahydro-1H,6H-pyrrolo[1′,2′:3,4]imidazo [1,2-c]pyrimidin-1-one], the IC50 worked out at 8.7 nM.

Turning to `CC12COCCN1c1cc(OCc3ccc(Oc4cc(C#N)cc(C(F)(F)F)c4)c(F)c3)nc(=O)n1C2` (stereo not drawn) [Example 83], the IC50 stood at 4.9 nM.

Consider `N#Cc1cc(Oc2ccc(COc3cc4n(c(=O)n3)CC35CC(CN43)C5)cc2F)cc(C(F)(F)F)c1` [Example 95], for which the IC50 was found to be 7.4 nM.

For the compound `Cc1c(OCc2cc(F)c(Oc3ccnc(C(F)(F)F)c3)c(F)c2)nc(=O)n2c1N1C[C@@H]3C[C@]1(CO3)C2` [Example 92, (3S,11aR)-7-((3,5-difluoro-4-((2-(trifluoromethyl)pyridin-4-yl)oxy)benzyl)oxy)-6-methyl-3,4-dihydro-1H,9H,11H-3,11a-methanopyrimido[6′,1′:2,3] imidazo[5,1-c][1,4]oxazin-9-one], the IC50 was determined as 5.6 nM.

For the compound `CN1C(=O)[C@]23C[C@H]1CN2c1cc(OCc2cc(F)c(Oc4cnn(C)c4)c(F)c2)nc(=O)n1C3` [Example 167, (3S,11aR)-7-((3,5-difluoro-4-((1-methyl-1H-pyrazol-4-yl)oxy)benzyl)oxy)-2-methyl-3,4-dihydro-9H,11H-3,11a-methanopyrazino[1′,2′:3,4] imidazo[1,2-c]pyrimidine-1,9(2H)-dione], the IC50 worked out at 19.4 nM.

For `COc1c(OCCc2ccc(Oc3cccc(C(F)(F)F)c3)c(F)c2)nc(=O)n2c1N1CC3CC1(C3)C2` [Example 183, 3-(3-fluoro-4-(3-(trifluoromethyl)phenoxy)phenethoxy)-4-methoxy-7,8-dihydro-1H,6H, 9H-7,8a-methanopyrrolo[1′,2′:3,4]imidazo [1,2-c]pyrimidin-1-one], the IC50 was determined as 13.8 nM.

As to `O=c1nc(OCc2cc(F)c(Oc3cnc(C(F)(F)F)nc3)c(F)c2)cc2n1CC13CC(CN21)C3` [Example 39, 3-((3,5-difluoro-4-((2-(trifluoromethyl)pyrimidin-5-yl)oxy)benzyl)oxy)-7,8-dihydro-1H,6H,9H-7,8a-methanopyrrolo[1′,2′:3,4] imidazo[1,2-c]pyrimidin-1-one], the IC50 amounted to 13.8 nM.

On to `COc1c(N(C)Cc2ccc(F)c(F)c2)nc(=O)n2c1N1C[C@@H]3C[C@]1(CO3)C2` [Example 180], for which the IC50 was 87.2 nM.

Take `CC(C)(O)C12CN3c4cc(OCc5ccc(Oc6ccnc(C(F)(F)F)c6)c(F)c5)nc(=O)n4CC3(C1)C2` [Example 201, 3-((3-Fluoro-4-((2-trifluoromethylpyridin-4-yl)oxy)benzyl)oxy)-7-(2-hydroxypropyl-2-yl)-7,8-dihydro-1H,6H,9H-7,8a-methanopyrrolo[1′, 2′:3, 4]imidazo[1,2-c]pyrimidin-1-one]: the IC50 is 4.4 nM.

Regarding `O=c1nc(OCc2ccc(Oc3cnc(C(F)(F)F)nc3)c(F)c2)cc2n1CC13CC(CN21)C3` [Example 122, 3-((3-fluoro-4-((2-(trifluoromethyl)pyrimidin-5-yl)oxy)benzyl)oxy)-7,8-dihydro-1H,6H,9H-7,8a-methanopyrrolo[1′,2′:3,4] imidazo[1,2-c]pyrimidin-1-one], the IC50 came to 9.4 nM.

On to `O=c1nc(OCc2cc(F)c(Oc3ccccc3)c(F)c2)cc2n1C[C@]13CO[C@H](CN21)C3` [Example 135, (3S,11aR)-7-((3,5-difluoro-4-phenoxybenzyl)oxy)-3,4-dihydro-1H,9H,11H-3,11a-methanopyrimido[6′,1′:2,3] imidazo[5,1-c][1,4]oxazin-9-one], for which the IC50 stood at 17.2 nM.

Turning to `O=c1nc(OCc2ccc(Oc3ccnc(C(F)(F)F)c3)c(F)c2)cc2n1CC13CC(CN21)C3` [Example 113, 3-((3-fluoro-4-((2-(trifluoromethyl)pyridin-4-yl)oxy)benzyl)oxy)-7,8-dihydro-1H,6H,9H-7,8a-methanopyrrolo[1′,2′:3,4] imidazo[1,2-c]pyrimidin-1-one], the half-maximal inhibitory concentration (IC50) is 5.7 nM.

The record behind these values is patent US20230044787A1, “TRICYCLE DIHYDROIMIDAZOPYRIMIDONE DERIVATIVE, PREPARATION METHOD THEREOF, PHARMACEUTICAL COMPOSITION AND USE THEREOF” (priority 2019, published 2023).
